Data: patent US9592228B2, “Treatment of inflammation using alpha 7 receptor-binding agonists” (THE FEINSTEIN INSTITUTE FOR MEDICAL RESEARCH, priority 2002, dated 2017)
Values joined by “and” are separate entries in the source; they are usually repeats but may differ in a detail not shown here. Equal values may be shown once. Read-outs that look alike come from different tables or passages of the source.

Key:
[1] = test system: LPS induced TNF-α release from murine RAW 264.7 macrophage-like cells; assay: cells; format: cell-based
[2] = test system: TNF production by LPS-stimulated nicotinic acetylcholine receptor α7 subunit knockout peritoneal macrophages; format: cell-based, mouse
[3] = test system: TNF production by LPS-stimulated wild type peritoneal macrophages; assay: TNF production by wild type peritoneal macrophages; format: cell-based, mouse; details: 4 h, ELISA, mean ± s.e.m., n = 8
Balb/c mice = details: mouse, in vivo
[4] = target: α-bungarotoxin-binding nicotinic receptors on primary human macrophages (Homo sapiens, UniProt P36544)
macrophages = details: data not shown
C57 B/6 mice [5] = details: mouse, in vivo
C57 B/6 mice [6] = details: mouse, in vivo; remark: listed apart in the source
[7] = agonist 1 μM added 5-10 min before LPS (100 ng/ml)
[8] = agonist 10 μM added 5-10 min before LPS (100 ng/ml)

Chain of α-bungarotoxin-binding nicotinic receptors on primary human macrophages (P36544 23-502): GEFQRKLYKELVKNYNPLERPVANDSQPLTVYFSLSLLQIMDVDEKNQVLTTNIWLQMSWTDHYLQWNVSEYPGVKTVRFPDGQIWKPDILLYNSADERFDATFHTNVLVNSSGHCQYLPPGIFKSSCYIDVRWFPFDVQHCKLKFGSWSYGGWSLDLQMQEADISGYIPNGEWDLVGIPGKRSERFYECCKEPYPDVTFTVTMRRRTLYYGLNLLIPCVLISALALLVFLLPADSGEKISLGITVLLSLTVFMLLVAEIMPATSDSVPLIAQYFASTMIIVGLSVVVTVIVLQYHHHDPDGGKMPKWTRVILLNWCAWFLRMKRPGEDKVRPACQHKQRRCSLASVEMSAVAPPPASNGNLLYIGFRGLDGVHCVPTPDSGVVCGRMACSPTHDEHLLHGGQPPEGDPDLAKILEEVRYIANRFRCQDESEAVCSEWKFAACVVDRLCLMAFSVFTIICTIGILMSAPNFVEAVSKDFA

## O=C1NCC2(CN3CCC2CC3)O1 (single isomer, unassigned; (-)) [Compound (VII), (−)-spiro[1-azabicyclo[2.2.2]octane-3,5′-oxazolidin-2′-one]]
[1]
  TNF-α release from RAW 264.7 cells at the higher concentrations: inhibit TNF-α release
  decrease of TNF-α release compared to control cells: more than four times

## CC(=O)OCC[N+](C)(C)C [Ach, acetylcholine]
[2]
  TNF: 20.4 ± 3.8 ng/mL and 21.4 ± 2.4 ng/mL
[3]; [7]
  TNF: 10.3 ± 1.1 ng/mL
[3]; [8]
  TNF: 5.7 ± 0.9 ng/mL

## COc1ccc(/C=C2\CCCN=C2c2cccnc2)c(OC)c1 [Compound (V), 3-2,4-dimethoxybenzylidene anabaseine]
Balb/c mice
  mice survived on Day 14: 91%
[1]
  inhibition of TNF-α release: dose dependently inhibits

## α-bungarotoxin
[4]
  binding of α-bungarotoxin on the macrophage surface: Strong binding

## CN1CCCC1c1cccnc1 (stereo not shown) [nicotine]
[2]
  TNF: 17.8 ± 0.6 ng/mL and 17.4 ± 2.9 ng/mL
  TNF production by α7 knockout macrophages in the presence of the agonist: produced TNF normally
macrophages
  calcium influx: induces transient calcium influx
[3]; [7]
  TNF: 5.2 ± 0.9 ng/mL
[3]; [8]
  TNF: 7.3 ± 1.0 ng/mL
[4]
  effect of pretreatment on intensity of α-bungarotoxin binding: markedly reduced
[1]; 0.001-100 uM added five minutes before LPS (500 ng/ml), 4 hours, ELISA, FIG. 7
  inhibition of TNF-α release: dose dependently inhibits
[1]; data not shown
  inhibition of LPS-induced TNF release in RAW264.7: significantly inhibit

## COc1cc(O)ccc1/C=C1\CCCN=C1c1cccnc1 [Compound (VI), 3-(4-hydroxy-2-methoxybenzylidene)anabaseine]
Balb/c mice
  mice survived on Day 14: 82%
C57 B/6 mice [5]
  decrease of the level of circulating TNF-α compared to vehicle control: approximately 50%
C57 B/6 mice [6]
  colon length compared to control mice: slightly greater
  colon weight (wet weight) compared to control condition: decreased
[1]
  percent inhibition of TNF-α: dose dependently inhibits
[1]; Mus musculus, RAW264.7, read-out: estimated IC50, inhibition of TNF-α
  IC50: ~900 nM
